Measurements reported in patent publication US20250241901A1, “ACTIVATION OF MNRR1 / CHCHD2 AS A THERAPEUTIC TARGET FOR MITOCHONDRIA ASSOCIATED DISORDERS” (Wayne State University, priority 2024, published 2025).

How the values were obtained:
Format in all cases: cell-based, human
MELAS cybrid cells = assay: Oxygen consumption of MELAS cybrid cells (Seahorse); settings: 10 μM, 48 h
Protocol: FIGS. 7A-7E: MNRR1 activation by tizoxanide enhances mtDNA biogenesis and mitophagy to shift heteroplasmy in MELAS cells. FIG. 7A: Oxygen consumption measured from MELAS cybrid cells treated with vehicle (DMSO) or tizoxanide (10 μM) for 48 h (n=4 biological replicates, error bars represent SE). FIG. 7B: Haelll restriction enzyme digestion of a PCR-amplified fragment of mtDNA harboring the m.3243A>G mutation from DW7 cells treated with vehicle (DMSO) or tizoxanide (10 μM) for 144 h. […] FIG. 7C: Genes identified using qPCR of MELAS cybrid cells stably overexpressing EV or MNRR1. FIG. 7D: MtDNA levels are shown relative to nuclear DNA (nDNA) (GAPDH) (n=5 biological replicates, error bars represent SE). […]
FIGS. 11A-11F: RBPJk and HIF2α compete for binding at the ORE in the MNRR1 promoter to regulate transcription. […] FIG. 11E: Oxygen consumption measured from Control or HIFα knockdown (KD) MELAS cybrid cells. […] FIG. 11F: Left, Oxygen consumption measured from MELAS cybrid cells treated with vehicle (DMSO) or PT2385 (10 μM), an inhibitor of HIF2α function, for 24 h. […]
(§1) Intact cellular oxygen consumption and measurement of ATP: Cellular oxygen consumption was measured with a Seahorse XFe24 Bioanalyzer (Agilent). Cells were plated at a concentration of 3.5×10^4 per well a day prior to treatment and basal oxygen consumption was measured 48 h after treatments, as described. […]

[1] = test system: MELAS patient fibroblasts; assay: Oxygen consumption and mitochondrial ATP rate in MELAS patient fibroblasts; settings: 10 μM, 48 h
Protocol: FIGS. 8A-8D: MNRR1 activation using tizoxanide enhances mitochondrial function, mitophagy, and protects from LPS-induced inflammation in MELAS patient fibroblasts. FIG. 8A: Equal amounts of lysates from MELAS patient fibroblast (MF 1, 2, or 3) lysates treated with vehicle (DMSO) or tizoxanide (10 μM) for 48 h were separated on an SDS-PAGE gel and probed for LC3B, PGC1a, MNRR1, MTCO2, TOM20, and phospho-ubiquitin (S65) levels. GAPDH orTubulin was probed as a loading control. FIG. 8B: Oxygen consumption measured from MELAS patient fibroblasts treated with vehicle (DMSO) or tizoxanide (10 μM) for 48 h (n=4 biological replicates, mean±SE). FIG. 8C: Mitochondrial ATP rate measured in MELAS patient fibroblasts treated with vehicle (DMSO) or tizoxanide (10 μM) for 48 h (n=4 biological replicates, mean±SE). FIG. 8D: Heatmap representation of ROS and TNFα transcript levels from MELAS patient fibroblasts treated with vehicle (DMSO), LPS (DMSO+500 ng/mL LPS), or LPS plus tizoxanide (10 μM tizoxanide+500 ng/mL LPS) for 24 h (n=4 biological replicates). […]
as §1

[2] = test system: MELAS patient fibroblasts; assay: Heteroplasmy in MELAS patient fibroblasts; settings: low heteroplasmy levels (<50%)
Protocol: Restriction Enzyme Digestion: DNA was analyzed for the MELAS mutation as described previously. The A→G mutation creates a new Haelll site at position 3243 that can be amplified by PCR using primers corresponding to the light-strand positions 3116 to 3134 and to the heavy-strand positions 3353 to 3333. Equal amounts of the resulting products were digested with the restriction enzyme Haelll (New England Biolabs) and electrophoresed on a 2.5% agarose gel.

`O=C(Nc1ncc([N+](=O)[O-])s1)c1ccccc1O` [tizoxanide, Tizoxanide] was tested, and the oxygen consumption (MELAS cybrid cells) was “increased”, the OCR [1] was “enhanced” and the “mitochondrial ATP levels” value [1] was “enhanced”. The shift of heteroplasmy [2] was “do not show a shift of heteroplasmy”.
